Assay results: patent US20240358693A1, “METHODS OF TREATING PAIN” (Aisa Pharma, Inc., priority 2023, published 2024)

Tested on: participants with SSc-RP
Assay: Frequency of weekly RP attacks (all attacks; primary efficacy endpoint)
Type: in vivo, human
Text: Percent change from baseline evaluation for frequency of weekly RP attacks were or will be used as the primary efficacy variable. The sponsor-developed participant-informed diary will be used to record data. Frequency of weekly RP attacks is defined as the total number of RP attacks divided by the number of days with available diary data within the last 7 days of each dosing period then multiplied by 7. Total number of RP attacks during the last 7 days of screening period divided by the number of days with available data then multiplied by 7 will be used as baseline for the analysis of all periods. The variable will be calculated as follows:
Percentage change={(weekly RP attacks for the last 7 days of each dosing period−Baseline weekly RP attacks)/Baseline weekly RP attacks}*100%.
Absolute change=weekly RP attacks for the last 7 days of each dosing period−Baseline weekly RP attacks
Percent change from baseline evaluation for frequency of weekly RP attacks was and will be the primary efficacy endpoint. Frequency of weekly RP attacks is defined as the total number of RP attacks divided by the number of days with available diary data within the last 7 days of each dosing period then multiplied by 7. Total number of RP attacks during the last 7 days of screening period divided by the number of days with available data then multiplied by 7 will be used as baseline for the analysis of all periods.
Percent change from baseline evaluation for frequency of weekly RP attacks were the primary efficacy endpoint. Data collected in the last 7 days of each dosing period were used for this analysis. Screening assessments were used as baseline for the analysis of all periods. No multiple comparison adjustment were used to control alpha for the multiple comparisons. Mixed effects model were used for analysis of the primary endpoint according to the crossover design. Other efficacy endpoints of continuous variables were analyzed using similar methodology. For nominal data, chi-square tests were applied. Generalized Estimating Equations method were used, as appropriate, for adjusting for potential confounding factors. In addition, the final analysis assessed whether in this study of severe Raynaud's disease participants, the minimally important difference, previously concluded of 14-15 points on the 100 point RCS scale had been achieved in the cilnidipine dose group. It also recorded the percentage of participants achieving a PASS (34 point difference from baseline on a 0-100 VAS) in each treatment group.

[1] = Tadalafil 5 mg, n=1, Excluding Outliers, by Baseline RCS, second subgroup, ITT Part A
[2] = all attacks, excluding outliers, cilnidipine 10 mg, tadalafil 5 mg daily
[3] = all attacks, by baseline RCS, second subgroup, cilnidipine 10 mg, tadalafil 5 mg daily
[4] = all attacks, cilnidipine 10 mg, tadalafil 5 mg daily

Structure (SMILES): CN1CC(=O)N2[C@H](c3ccc4c(c3)OCO4)c3[nH]c4ccccc4c3C[C@@H]2C1=O [Tadalafil, tadalafil]
- Weekly RP Attacks (All Attacks) Change from Baseline, Mean [1]: 6.00
- Weekly RP Attacks (All Attacks) Change from Baseline, Median [1]: 6.00
- Weekly RP Attacks (All Attacks) Percent Change from Baseline, Mean [1]: 46.15%
- Weekly RP Attacks (All Attacks) Percent Change from Baseline, Median [1]: 46.15%
- Weekly RP Attacks (All Attacks), Mean [1]: 19.00
- Weekly RP Attacks (All Attacks), Median [1]: 19.00
- Weekly RP Attacks Change from Baseline, Max [2]: 6.0, 6.0
- Weekly RP Attacks Change from Baseline, Mean (SD) [2]: 6.00
- Weekly RP Attacks Change from Baseline, Median [2]: 6.00
- Weekly RP Attacks Change from Baseline, Min [2]: 6.0, 6.0
- Weekly RP Attacks Change from Baseline, Q1 [2]: 6.00, 6.00
- Weekly RP Attacks Change from Baseline, Q3 [2]: 6.00, 6.00
- Weekly RP Attacks Percent Change from Baseline, Max [2]: 46.2, 46.2%
- Weekly RP Attacks Percent Change from Baseline, Mean (SD) [2]: 46.15%
- Weekly RP Attacks Percent Change from Baseline, Median [2]: 46.15%
- Weekly RP Attacks Percent Change from Baseline, Min [2]: 46.2, 46.2%
- Weekly RP Attacks Percent Change from Baseline, Q1 [2]: 46.15, 46.15%
- Weekly RP Attacks Percent Change from Baseline, Q3 [2]: 46.15, 46.15%
- Weekly RP Attacks, Max [2]: 19.0, 19.0
- Weekly RP Attacks, Mean (SD) [2]: 19.00
- Weekly RP Attacks, Median [2]: 19.00
- Weekly RP Attacks, Min [2]: 19.0, 19.0
- Weekly RP Attacks, Q1 [2]: 19.00, 19.00
- Weekly RP Attacks, Q3 [2]: 19.00, 19.00
- Weekly RP Attacks Change from Baseline, Max [3]: 6.0
- Weekly RP Attacks Change from Baseline, Mean [3]: 3.00
- Weekly RP Attacks Change from Baseline, Median [3]: 3.00
- Weekly RP Attacks Change from Baseline, Min [3]: 0.0
- Weekly RP Attacks Change from Baseline, Q1 [3]: 0.00
- Weekly RP Attacks Change from Baseline, Q3 [3]: 6.00
- Weekly RP Attacks Percent Change from Baseline, Max [3]: 46.2%
- Weekly RP Attacks Percent Change from Baseline, Mean [3]: 23.08%
- Weekly RP Attacks Percent Change from Baseline, Median [3]: 23.08%
- Weekly RP Attacks Percent Change from Baseline, Min [3]: 0.0%
- Weekly RP Attacks Percent Change from Baseline, Q1 [3]: 0.00%
- Weekly RP Attacks Percent Change from Baseline, Q3 [3]: 46.15%
- Weekly RP Attacks, Max [3]: 19.0
- Weekly RP Attacks, Mean [3]: 13.00
- Weekly RP Attacks, Median [3]: 13.00
- Weekly RP Attacks, Min [3]: 7.0
- Weekly RP Attacks, Q1 [3]: 7.00
- Weekly RP Attacks, Q3 [3]: 19.00
- Weekly RP Attacks Change from Baseline, Max [4]: 6.0
- Weekly RP Attacks Change from Baseline, Mean (SD) [4]: 3.00 (4.243)
- Weekly RP Attacks Change from Baseline, Median [4]: 3.00
- Weekly RP Attacks Change from Baseline, Min [4]: 0.0
- Weekly RP Attacks Change from Baseline, Q1 [4]: 0.00
- Weekly RP Attacks Change from Baseline, Q3 [4]: 6.00
- Weekly RP Attacks Percent Change from Baseline, Max [4]: 46.2%
- Weekly RP Attacks Percent Change from Baseline, Mean (SD) [4]: 23.08 (32.636) Percent
- Weekly RP Attacks Percent Change from Baseline, Median [4]: 23.08%
- Weekly RP Attacks Percent Change from Baseline, Min [4]: 0.0%
- Weekly RP Attacks Percent Change from Baseline, Q1 [4]: 0.00%
- Weekly RP Attacks Percent Change from Baseline, Q3 [4]: 46.15%
- Weekly RP Attacks, Max [4]: 19.0
- Weekly RP Attacks, Mean (SD) [4]: 13.00 (8.485)
- Weekly RP Attacks, Median [4]: 13.00
- Weekly RP Attacks, Min [4]: 7.0
- Weekly RP Attacks, Q1 [4]: 7.00
- Weekly RP Attacks, Q3 [4]: 19.00
